Reference: PubChem BioAssay (NCI)
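Exposure lasted 48 hours, with cells grown in 96-well plates and compounds tested at five concentrations. TGI: concentration producing complete growth inhibition.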

Legend:
Assay in all cases: NCI tumour cell line growth inhibition, 48 h
[1] = system: UO-31 renal
[2] = system: UACC-257 melanoma
[3] = system: DMS 114 small cell lung
[4] = system: 786-0 renal
[5] = system: A498 renal
[6] = system: DLD-1 colon
[7] = system: NCI-H460 lung
[8] = system: RXF 393 renal
[9] = system: CCRF-CEM leukemia
[10] = system: NCI-H226 lung
[11] = system: OVCAR-3 ovarian
[12] = system: HOP-62 NSCLC
[13] = system: SK-MEL-5 melanoma
[14] = system: NCI-H522 lung
[15] = system: SK-OV-3 ovarian
[16] = system: SN12C renal
[17] = system: SF-539 CNS
[18] = system: SF-295 CNS
[19] = system: IGROV1 ovarian
[20] = system: MALME-3M melanoma
[21] = system: LOX IMVI melanoma
[22] = system: SF-268 CNS
[23] = system: U251 CNS
[24] = system: CAKI-1 renal
[25] = system: KM12 colon
[26] = system: EKVX NSCLC
[27] = system: RPMI-8226 leukemia
[28] = system: HCC-2998 colon
[29] = system: MOLT-4 leukemia
[30] = system: TK-10 renal
[31] = system: M19-MEL melanoma
[32] = system: A549 NSCLC
[33] = system: OVCAR-5 ovarian
[34] = system: UACC-62 melanoma
[35] = system: HOP-18 NSCLC
[36] = system: OVCAR-8 ovarian
[37] = system: SW-620 colon
[38] = system: COLO 205 colon
[39] = system: HT29 colon
[40] = system: DMS 273 small cell lung
[41] = system: ACHN renal
[42] = system: SNB-75 CNS
[43] = system: HCT-15 colon
[44] = system: NCI-H23 lung
[45] = system: SNB-78 CNS
[46] = system: K-562 leukemia
[47] = system: HOP-92 NSCLC
[48] = system: SK-MEL-28 melanoma
[49] = system: HL-60(TB) leukemia
[50] = system: SK-MEL-2 melanoma
[51] = system: KM20L2 colon
[52] = system: OVCAR-4 ovarian
[53] = system: SNB-19 CNS
[54] = system: M14 melanoma
[55] = system: HCT-116 colon
[56] = system: SR leukemia
[57] = system: LXFL 529 NSCLC
[58] = system: XF 498 CNS

Measured: TGI

COc1ccccc1/C=C/C(=O)c1sc(-c2cccnc2)nc1C
not listed: [52] | [53] | [54] | [55] | [56] | [57] | [58]
> 100 µM: all other assays above

Cc1nc(Nc2nnc(-c3cc([N+](=O)[O-])cc([N+](=O)[O-])c3C)o2)sc1C(=O)CC(=O)Cc1nc2ccc(Cl)cc2[nH]c1=O
not listed: [4] | [6] | [11] | [20] | [35]
> 100 µM: all other assays above
